Laboratory results reported in patent US9782406B2, “Kinase inhibitor and method for treatment of related diseases” (PEKING UNIVERSITY SHENZHEN GRADUATE SCHOOL, priority 2011, dated 2017).

Target: Btk (Homo sapiens, UniProt Q06187)
Test: Btk in vitro inhibitory activity, acellular TR-FRET kinase assay; further: 1 µM peptide substrate
Type: biochemical
Conditions: read-out: Btk IC50 (Efficacy)
Description: Btk kinase activity was determined using a time-resolved fluorescence resonance energy transfer (TR-FRET) methodology. Measurements were performed in a reaction volume of 50 μL using 96-well assay plates. […] The TR-FRET signal was measured on a multimode plate reader with an excitation wavelength (λEx) of 330 nm and detection wavelengths (λEm) of 615 and 665 nm. Activity was determined by the ratio of the fluorescence at 665 nm to that at 615 nm. For each compound, enzyme activity was measured at various concentrations of compound. Negative control reactions were performed in the absence of inhibitor in replicates of six, and two no-enzyme controls were used to determine baseline fluorescence levels. IC50s were obtained using the program Batch Ki (Kuzmic et al. (2000), Anal. Biochem. 286:45-50).

Sequence of Btk (Q06187 whole entry): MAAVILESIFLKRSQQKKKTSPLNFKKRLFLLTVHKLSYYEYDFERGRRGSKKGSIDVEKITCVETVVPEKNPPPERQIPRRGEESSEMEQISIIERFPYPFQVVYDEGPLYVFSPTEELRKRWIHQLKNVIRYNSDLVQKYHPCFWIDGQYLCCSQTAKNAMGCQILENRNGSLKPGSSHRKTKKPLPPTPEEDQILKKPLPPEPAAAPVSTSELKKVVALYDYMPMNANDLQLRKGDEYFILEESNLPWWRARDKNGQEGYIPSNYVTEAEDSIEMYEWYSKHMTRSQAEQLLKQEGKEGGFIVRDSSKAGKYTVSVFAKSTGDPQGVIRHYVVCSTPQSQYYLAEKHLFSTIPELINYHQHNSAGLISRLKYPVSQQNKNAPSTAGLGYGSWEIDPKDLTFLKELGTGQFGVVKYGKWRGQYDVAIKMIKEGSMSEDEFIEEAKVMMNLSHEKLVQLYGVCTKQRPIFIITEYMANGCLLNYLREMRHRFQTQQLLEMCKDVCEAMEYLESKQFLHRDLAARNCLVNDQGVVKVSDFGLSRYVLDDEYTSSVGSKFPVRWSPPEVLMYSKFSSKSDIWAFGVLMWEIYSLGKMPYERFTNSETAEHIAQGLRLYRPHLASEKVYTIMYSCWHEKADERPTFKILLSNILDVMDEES

Question: For `C=CC(=O)Nc1cccc(Nc2ncc(NC(=O)c3cc(NC(=O)c4cc(OC)cc(OC)c4)ccc3C)cn2)c1` [Example 12], which IC50 is on record?
Answer: < 100 nM

Question: For `C=CC(=O)N(C(=O)C=C)c1cccc(Nc2ncc(NC(=O)c3cc(NC(=O)c4cccc(C(F)(F)F)c4)ccc3C)cn2)c1` [Example 5], which IC50 is on record?
Answer: 100 to 1000 nM

Question: Which IC50 does the source give for `Cc1ccc(NC(=O)c2ccc(C(F)(F)F)cc2)cc1C(=O)Nc1cnc(Nc2cccc(N)c2)nc1` [Example 26] here?
Answer: < 100 nM

Question: With `Cc1ccc(NC(=O)C2CC2)cc1C(=O)Nc1cnc(Nc2cccc(N)c2)nc1` [Example 31] as the molecule, how does the IC50 read?
Answer: 1000 to 10000 nM

Question: For `C=CC(=O)Nc1cccc(Nc2ncc(NC(=O)c3cc(NC(=O)c4ccc5ccccc5c4)ccc3C)cn2)c1` [Example 11], which IC50 is on record?
Answer: < 100 nM

Question: For `C=CC(=O)Nc1cccc(Nc2ncc(NC(=O)c3cc(NC(=O)c4cccc(C(F)(F)F)c4)ccc3F)cn2)c1` [Example 7], which IC50 is on record?
Answer: < 100 nM

Question: With `C=CC(=O)Nc1cccc(Nc2ncc(NC(=O)c3cc(NC(=O)c4cccc(N(C)C)c4)ccc3C)cn2)c1` [Example 18] as the molecule, how does the IC50 read?
Answer: < 100 nM

Question: For `Nc1cccc(Nc2ncc(NC(=O)c3cc(NC(=O)c4cccc(C(F)(F)F)c4)ccc3F)cn2)c1` [Example 34], which IC50 is on record?
Answer: < 100 nM

Question: For `C=CC(=O)Nc1cccc(Nc2ncc(NC(=O)c3cccc(NC(=O)c4cccc(C(F)(F)F)c4)c3)cn2)c1` [Example 8], which IC50 is on record?
Answer: < 100 nM

Question: For `C/C=C/C(=O)Nc1cccc(Nc2ncc(NC(=O)c3cc(NC(=O)c4cccc(C(F)(F)F)c4)ccc3C)cn2)c1` [Example 2], which IC50 is on record?
Answer: < 100 nM

Question: Which IC50 does the source give for `Cc1ccc(NC(=O)c2cccc(C(F)(F)F)c2)cc1C(=O)Nc1cnc(Nc2cccc(N)c2)nc1` [Example 20] here?
Answer: < 100 nM

Question: With `C=CC(=O)Nc1cccc(Nc2ncc(NC(=O)c3cc(NC(=O)c4cccc(Cl)c4)ccc3C)cn2)c1` [Example 15] as the molecule, how does the IC50 read?
Answer: < 100 nM

Question: With `Nc1cccc(Nc2ncc(NC(=O)c3cc(NC(=O)c4cccc(C(F)(F)F)c4)ccc3Cl)cn2)c1` [Example 33] as the molecule, how does the IC50 read?
Answer: < 100 nM

Question: For `C=CC(=O)NCC(=O)Nc1cccc(Nc2ncc(NC(=O)c3cc(NC(=O)c4cccc(C(F)(F)F)c4)ccc3C)cn2)c1` [Example 4], which IC50 is on record?
Answer: < 100 nM

Question: For `C=CC(=O)Nc1cccc(Nc2ncc(NC(=O)c3cc(NC(=O)c4ccc5c(c4)OC(F)(F)O5)ccc3C)cn2)c1` [Example 13], which IC50 is on record?
Answer: < 100 nM

Question: Which IC50 does the source give for `Cc1ccc(NC(=O)c2cccc(N(C)C)c2)cc1C(=O)Nc1cnc(Nc2cccc(N)c2)nc1` [Example 30] here?
Answer: < 100 nM

Question: For `Cc1ccc(NC(=O)/C=C/c2ccccc2)cc1C(=O)Nc1cnc(Nc2cccc(N)c2)nc1` [Example 37], which IC50 is on record?
Answer: 100 to 1000 nM

Question: With `C=CC(=O)Nc1cccc(Nc2ncc(NC(=O)c3cc(NC(=O)c4cnoc4C)ccc3C)cn2)c1` [Example 17] as the molecule, how does the IC50 read?
Answer: 100 to 1000 nM

Question: Which IC50 does the source give for `C=CC(=O)Nc1cccc(Nc2ncc(NC(=O)c3cc(NC(=O)CC)ccc3C)cn2)c1` [Example 10] here?
Answer: 100 to 1000 nM

Question: With `Cc1ccc(NC(=O)c2ccc3ccccc3c2)cc1C(=O)Nc1cnc(Nc2cccc(N)c2)nc1` [Example 23] as the molecule, how does the IC50 read?
Answer: < 100 nM

Question: Which IC50 does the source give for `COc1cc(OC)cc(C(=O)Nc2ccc(C)c(C(=O)Nc3cnc(Nc4cccc(N)c4)nc3)c2)c1` [Example 24] here?
Answer: < 100 nM

Question: For `CCC(=O)Nc1ccc(C)c(C(=O)Nc2cnc(Nc3cccc(N)c3)nc2)c1` [Example 22], which IC50 is on record?
Answer: 1000 to 10000 nM

Question: For `Cc1ccc(NC(=O)c2cccc(F)c2)cc1C(=O)Nc1cnc(Nc2cccc(N)c2)nc1` [Example 28], which IC50 is on record?
Answer: 100 to 1000 nM

Question: Which IC50 does the source give for `C=CC(=O)Nc1cccc(Nc2ncc(NC(=O)c3ccccc3C)cn2)c1` [Example 9] here?
Answer: < 100 nM

Question: For `C=CC(=O)Nc1cccc(Nc2ncc(NC(=O)c3cc(NC(=O)c4cccc(F)c4)ccc3C)cn2)c1` [Example 16], which IC50 is on record?
Answer: < 100 nM

Question: Which IC50 does the source give for `C=CS(=O)(=O)Nc1cccc(Nc2ncc(NC(=O)c3cc(NC(=O)c4cccc(C(F)(F)F)c4)ccc3C)cn2)c1` [Example 3] here?
Answer: < 100 nM

Question: With `Cc1ccc(NC(=O)c2cc(Cl)cc(C(F)(F)F)c2)cc1C(=O)Nc1cnc(Nc2cccc(N)c2)nc1` [Example 21] as the molecule, how does the IC50 read?
Answer: < 100 nM

Question: Which IC50 does the source give for `Cc1ccc(NC(=O)c2ccc3c(c2)OC(F)(F)O3)cc1C(=O)Nc1cnc(Nc2cccc(N)c2)nc1` [Example 25] here?
Answer: < 100 nM

Question: For `Cc1ccc(NC(=O)c2cnoc2C)cc1C(=O)Nc1cnc(Nc2cccc(N)c2)nc1` [Example 29], which IC50 is on record?
Answer: 100 to 1000 nM

Question: Which IC50 does the source give for `Cc1ccc(NC(=O)c2cccc(Cl)c2)cc1C(=O)Nc1cnc(Nc2cccc(N)c2)nc1` [Example 27] here?
Answer: < 100 nM

Question: For `C=CC(=O)Nc1cccc(Nc2ncc(NC(=O)c3cc(NC(=O)C4CC4)ccc3C)cn2)c1` [Example 19], which IC50 is on record?
Answer: 100 to 1000 nM

Question: For `C=CC(=O)Nc1cccc(Nc2ncc(NC(=O)c3cc(NC(=O)c4cccc(C(F)(F)F)c4)ccc3Cl)cn2)c1` [Example 6], which IC50 is on record?
Answer: < 100 nM

Question: Which IC50 does the source give for `Nc1cccc(Nc2ncc(NC(=O)c3cccc(NC(=O)c4cccc(C(F)(F)F)c4)c3)cn2)c1` [Example 32] here?
Answer: 100 to 1000 nM

Question: Which IC50 does the source give for `C=CC(=O)Nc1cccc(Nc2ncc(NC(=O)c3cc(NC(=O)c4ccc(C(F)(F)F)cc4)ccc3C)cn2)c1` [Example 14] here?
Answer: < 100 nM

Question: With `Cc1ccc(NC(=O)Nc2cccc(C(F)(F)F)c2)cc1C(=O)Nc1cnc(Nc2cccc(N)c2)nc1` [Example 35] as the molecule, how does the IC50 read?
Answer: < 100 nM

Tested on: rat basophilic leukemia cells (RBL-2H3)
Test: not given
Conditions: mast cells treated with Btk inhibitor; cited from earlier work

Question: For `C/C(O)=C(\C#N)C(=O)Nc1cc(Br)ccc1Br` [LFM-A13], which “release of histamine reduced” value is on record?
Answer: 20-25%
